Assay results: patent US20140187570A1, “NOVEL FORMULATIONS OF PYRIMETHANIL, AND THEIR USE IN TREATMENT OF CROPS” (XEDA INTERNATIONAL, priority 2011, published 2014)

Experiments:
[1] = tested on: Monilinia fructicola strain resistant to pyrimethanil; test: In vitro growth inhibition of the halo on PDA Petri dishes, resistant strain; format: cell-based; conditions: dose 250 ml/hl
Description: The object of the study was to determine the efficacy of combinations according to the invention against the phytopathogenic fungus Monilinia fructicola, compared to pyrimethanil alone.
The efficacy of the combinations against Monilinia fructicola was determined by determining the inhibition of growth of the halo in accordance with various general methods (ISO 6887: 2003; ISO 7218: 2007; ISO 7954: 1987).
The samples were added to the artificial medium and were mixed gently prior to the solidification of the agar solution.
A small quantity of fungal spores was placed at the centre of the potato dextrose agar (PDA) in Petri dishes at 25±1° C. for 5-6 days. At the end of the incubation, the inhibition of the halo formed was measured, compared with untreated PDA Petri dishes (control).
The results are expressed as the percentage of incidence of the infestation, and the percentage of efficacy of the product tested.
Monilinia fructicola—Strain Resistant to Pyrimethanil: […]

[2] = tested on: Geotrichum candidum; test: Fungicidal activity on treated oranges (Example 5); format: in vivo; conditions: oranges treated with pyrimethanil alone
Description: Oranges are separated into three lots, and are treated as follows: • Lot 1 (control): oranges not treated; • Lot 2: oranges treated with pyrimethanil alone; • Lot 3: oranges treated with 250 g of the formulation according to Example 2 diluted in one hectolitre of water.

## Cc1cc(C)nc(Nc2ccccc2)n1 [pyrimethanil alone, 2-anilino-4,6-dimethylpyrimidine]
[1]
  Efficacy (%): 45%
[2]
  level of Geotrichum candidum compared with control lot: same level of Geotrichum candidum as the control lot
